According to article PMC5510229, “BCAT1 controls metabolic reprogramming in activated human macrophages and is associated with inflammatory diseases” (Nature Communications, 2017):

How the values were obtained:
[1] = test system: collagen-induced arthritis (CIA); test: Collagen-induced arthritis (CIA) in mice; assay type: in vivo, DBA/1 mice
Excerpt: Figure 5 Orally administrated ERG240 reduced the severity of crescentic glomerulonephritis in rats and CIA in mice. (a) Glomerular crescents, serum creatinine, and proteinuria levels measured in vehicle and ERG240 treated rats at day 10 following induction of nephrotoxic nephritis. At least n=4 rats were used in each group. (b) Col1a1 immunofluorescence (IF) quantification (left panel), representative IF and Sirius red staining images (middle panel) and Col1a1 qRT-PCR (normalized to Hprt) 28 days following NTS injection. Original magnification, × 20, at least n=4 animals were used in each group. (c) Clinical progression of CIA measured by the Mean Arthritis Index in vehicle and ERG240-treated animals in both studies (prophylactic and therapeutic, upper panel; at least n=6 animals per group). Histological analysis of joints from representative whole paws scored for inflammation, pannus formation, cartilage damage and bone resorption (lower panel). Error bars are s.e.m. Either Mann–Whitney or Student’s t-test were used for significance. *** P<0.001, ** P<0.01, * P<0.05. Scale bars, 50 μm.
DBA/1 mice (6–8 weeks old from Harlan Sprague Dawley Inc.) were injected s.c. with 100 μg of bovine type II collagen emulsified in complete Freund’s adjuvant (Sigma). At day 21 following primary immunization, the mice were given a booster injection of 100 μg of bovine type II collagen emulsified in incomplete Freund’s adjuvant. The prophylactic arm of the study involved water-treated (vehicle control, n=6) and ERG240-treated (720 mg kg^−1, o.p., qdx5, 3 weeks, n=10) animals, while the therapeutic arm of the study involved water-treated (vehicle control, n=10) and ERG240-treated (1,000 mg kg^−1, o.p., qdx5, 4 weeks, n=10) animals. Parafin-embedded paws were sectioned at ∼5 μm. One slide from each paw was stained with hematoxylin and eosin (H&E) and served as a reference, while four additional slides were stained using antibodies against F4/80 (AbD Serotec). The expression of the above markers in the joints of the preserved CIA tissues was scored according to the following scale: 0=no staining; 1=minimal; 2=mild; 3=moderate; 4=marked; and 5=diffuse and severe staining (see Supplementary Methods for detailed histological evaluation of CIA tissues). Serum levels of TNF and RANKL were analysed using relevant ELISA kits from Biolegend (TNF-α) and Abcam (RANKL) according to the manufacturers’ instructions. Details for determining the presence of antibodies against type II collagen are provided in Supplementary Methods.
Clinical and histological evaluation methods in CIA
Development of arthritis was assessed ever y other da y and scored on a scale of 0-4 as follows: 0=no oedema or swelling, 1=slight oedema and er ythema restricted to the foot or ankle, 2=moderate to severe oedema and er ythema restricted to the foot or ankle, 3 =oedem a and erythema of the entire paw, and 4=maximum inflamed limb i nvolving multiple joints.
The maximal arthritic score or arthritic index (AI) per animal was 16 (cumulative for 4 limbs).Paw thickness was measured before termination of the experiment . […]
Histological evaluation of CIA t issues.
Dosing of the animals in the proph ylactic groups started on the da y of the booster injection (day 21), while dosing of the animals in the therapeutic groups started after arthritis was established (da y 26). Animals were scored for the presence of arthritis ever y other da y and weighed once a week. At the end of the study, sera were obtained b y cardiac puncture and paws were excised for histological examination (HistoTox Labs Inc). From each therap eutic group, three front and four hind paws were selected for histological an al ys is . Paws were fixed in 4% formalin and decalcified in formic acid. Parafin sections (8 µm) were stained with toluidine blue (T-blue). The sections were evaluated blindly and scored for inflammation, pannus infiltration, cartilage damage, and bone erosion according to scale shown here. […]

[2] = Blood brain barrier crossing
Excerpt: NCOMMS-16-23550_Point by Point Responses Papathanassiu et al.
6. It would be interesting to know why the half -life in animals is very low. Again, is the drug metabolized by the organism? (see also point 3).
Authors’ reply. The pharmacokinetic study that determined the half -life of the drug in mice […]
ERG240 is completely absorbed and not subject to first -pass metabolism. Since the drug is structurally a leucine analogue, it is likely to be uptaken by the ubiquitously expressed amino acid transporter LAT1. In that light, the low half -life of the drug is related to its complete and swift absorption by various sites rather to a phase I or II metabolic reaction. ERG240 is also […]
preferentially in the brain. […]
metabolism of the drug in human macrophages, please see the response to point 3, which […]
7. Leucine is degraded to acetyl -Coa and acetoacetate both fueling cellular acetyl -Coa pools. Does decreased activity of BCAT1 impact cellular acetyl -Coa and citrate levels? Itaconate synthesis is a sink for citrate and diverts carbon away from the TCA cycle. […]
have measured citrate levels in 4 donors following LPS and LPS + ERG240 treatment for 3 hours by GC-MS. […]
Itaconate levels measured by GC/MS were further confirmed in si-BCAT1 and si-Control MDMs from independent donors (n=4, left panel). […]

[3] = excised paws after completion of CIA

CC(=O)C(C)CCC(=O)O (centres unmarked) [ERG240]
serum Tnf levels ([1]; CIA mice, ELISA): diminished levels | serum Tnfsf11 (RANKL) levels ([1]; CIA mice, ELISA): diminished levels | decrease of bone erosion (paw histology) [1, 3]: 86% | decrease of cartilage degradation (paw histology) [1, 3]: 74% | decrease of inflammation (paw histology) [1, 3]: 53% | decrease of pannus formation (paw histology) [1, 3]: 86% | F4/80+ macrophages in the joints ([1]; immunohistochemistry of excised paws): significant reduction | joint oedema ([1]; only in the fore paws, therapeutic study): significant decrease | severity of CIA (Mean Arthritis Index) ([1]; oral, prophylactic 720 mg kg^−1, therapeutic 1000 mg kg^−1): alleviates the severity of CIA | accumulation in the brain [2]: does not accumulate | crossing of the blood brain barrier [2]: capable of crossing the blood brain barrier
